Laboratory results: article PMC4955970, “Stable, synthetic analogs of diadenosine tetraphosphate inhibit rat and human P2X3 receptors and inflammatory pain” (Molecular Pain, 2016)

Experiments:
[1] = target: T1, human P2X3 receptors (hP2X3Rs) (Homo sapiens, UniProt P56373); test: Whole-cell patch clamp on HEK293 cells expressing recombinant human P2X3Rs; format: cell-based
T1 construct: transfected with rat or human full-length P2X3 cDNA subcloned into pIRES2-EGFP; expressed in transfected cells; host or cells: HEK293T (HEK293 in the results)
T1 sequence (P56373 1-397): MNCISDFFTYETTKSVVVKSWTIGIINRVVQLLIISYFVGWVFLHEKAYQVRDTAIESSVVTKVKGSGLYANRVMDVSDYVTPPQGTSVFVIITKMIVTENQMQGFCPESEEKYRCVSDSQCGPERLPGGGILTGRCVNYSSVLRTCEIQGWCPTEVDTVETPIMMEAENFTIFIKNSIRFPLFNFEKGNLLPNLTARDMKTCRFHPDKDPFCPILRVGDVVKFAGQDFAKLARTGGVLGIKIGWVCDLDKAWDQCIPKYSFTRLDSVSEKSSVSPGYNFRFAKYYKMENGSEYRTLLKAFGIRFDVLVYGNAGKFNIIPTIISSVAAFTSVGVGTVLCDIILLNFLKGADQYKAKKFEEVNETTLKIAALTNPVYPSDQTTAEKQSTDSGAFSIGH
Description: (§1) Rat trigeminal, nodose, or dorsal root ganglion (TG, NG, and DRG, respectivley) neurons in culture were prepared as described previously.[46],[47] Neurons were plated on poly-L-lysine (0.2 mg/ml)-coated Petri dishes and cultured for one to two days under an atmosphere containing 5% CO2. Cells were used within two days of plating when they lacked processes. HEK293T cells were prepared as reported previously[32],[48] and transfected with rat or human full-length P2X3 cDNA subcloned into pIRES2-EGFP (Clontech, Mountain View, CA, USA).
(§2) TG, NG, DRG, or HEK cells were recorded in the whole-cell configuration while being continuously superfused (at 2 ml/min) with control solution containing (in mM): 152 NaCl, 5 KCl, 1 MgCl2, 2 CaCl2, 10 glucose, and 10 HEPES; pH was adjusted to 7.4 with NaOH and osmolarity was adjusted to 320 mOsM with glucose. […] Responses to selective P2X3R agonist α,β-methylene-ATP (α,β-meATP; resistant to ectoATPase hydrolysis, Sigma-Aldrich) were measured using an EPC-9 amplifier operated by HEKA Patch Master software (HEKA Electronik, Germany). Cells were voltage-clamped at −70 mV. In most cells, series resistance was compensated by 80%. To determine EC50 values, dose-response curves were constructed for α,β-meATP by administering different agonist doses same cells and fitting data to a logistic equation (Origin 8.0, Microcal, Northampton, MA).
Agonists and antagonists were applied (usually for 2 s) via a rapid superfusion system (Rapid Solution Changer RSC-200; BioLogic Science Instruments, Grenoble, France) placed 100 to 150 µm near the cell. The time for the solution exchange across the cell was approximately 30 ms, as judged with liquid junction potential measurements. All chemicals, including enzymes for cell culture, were from Sigma-Aldrich (St. Louis, MO). […]
The peak amplitudes of the responses were measured using HEKA Patch Master software. […] All data are presented as mean ± SEM (n = the number of cells) with statistical significance assessed by paired t-test (for parametric data) or Mann-Whitney rank-sum test (for nonparametric data). […]

[2] = target: T2, native P2X3Rs in TG neurons (Rattus norvegicus, UniProt P49654); test: Whole-cell recording of α,β-meATP currents in cultured trigeminal ganglion (TG) neurons; format: cell-based; settings: read-out: inhibition of peak currents in TG neurons
T2 construct: endogenous in cells; host or cells: cultured rat trigeminal ganglion (TG) or dorsal root ganglion (DRG) neurons
T2 sequence (P49654 1-397): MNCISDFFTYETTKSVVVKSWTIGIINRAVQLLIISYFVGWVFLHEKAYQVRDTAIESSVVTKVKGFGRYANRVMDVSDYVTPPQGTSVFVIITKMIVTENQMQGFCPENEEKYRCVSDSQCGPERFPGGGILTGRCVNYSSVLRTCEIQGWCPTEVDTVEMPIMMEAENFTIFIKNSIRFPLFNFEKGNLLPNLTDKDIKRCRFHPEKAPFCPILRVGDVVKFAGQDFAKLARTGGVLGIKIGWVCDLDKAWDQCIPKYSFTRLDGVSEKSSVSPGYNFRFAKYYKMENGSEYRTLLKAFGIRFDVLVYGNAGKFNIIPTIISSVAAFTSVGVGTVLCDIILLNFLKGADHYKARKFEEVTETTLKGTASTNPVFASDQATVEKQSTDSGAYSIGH
Description: as §1
as §2, with “MA). […]” for “MA).”

remaining activity at 1 µM ([1]; HEK293, read-out: α,β-meATP test currents, % of control): 12 ± 4%
remaining activity at 0.1 µM ([1]; HEK293, read-out: α,β-meATP test responses, % of control): 48 ± 8%
activity at 0.01 µM ([1]; HEK293, read-out: α,β-meATP-activated currents, % of control values): 80 ± 5%
inhibition at 1 µM [2]: 80.3 ± 4.4%
Structure (SMILES): Nc1ncnc2c1ncn2[C@@H]1O[C@H](COP(=O)(O)OP(=O)(O)NP(=O)(O)OP(=O)(O)OC[C@H]2O[C@@H](n3cnc4c(N)ncnc43)[C@H](O)[C@@H]2O)[C@@H](O)[C@H]1O [AppNHppA, diadenosine 5′,5′′′-P^1,P^4-(β,γ-imido)tetraphosphate]
